Test results from patent US10000483B2, “Bone marrow on X chromosome kinase (BMX) inhibitors and uses thereof” (Dana-Farber Cancer Institute, Inc., priority 2012, dated 2018).

How the values were obtained:
ITK [1] = molecular target: T1, ITK (Homo sapiens (Human), UniProt Q08881); assay: DiscoverX binding assay
Source text: (§2) Screening hits are identified by measuring the amount of protein captured in test versus control samples by using a quantitative, precise, and ultra-sensitive qPCR method that detects the associated DNA label.

RV-1 cells = assay: Anti-proliferation assay for prostate cancer cells (CellTiter-Glo); format: cell-based
Description: (§3) Data were normalized to control group (DMSO) and represented by the mean of at least two independent measurement with standard error <20%. GI50 were calculated using Prism 5.0 (GraphPad Software, San Diego, Calif.).

BMX [2] = molecular target: T2, BMX (Homo sapiens (Human), UniProt P51813); assay: BMX protein levels in RV-1 cells; format: cell-based; conditions: 72 h treatment, 5 μM
T2 sequence (P51813 whole entry): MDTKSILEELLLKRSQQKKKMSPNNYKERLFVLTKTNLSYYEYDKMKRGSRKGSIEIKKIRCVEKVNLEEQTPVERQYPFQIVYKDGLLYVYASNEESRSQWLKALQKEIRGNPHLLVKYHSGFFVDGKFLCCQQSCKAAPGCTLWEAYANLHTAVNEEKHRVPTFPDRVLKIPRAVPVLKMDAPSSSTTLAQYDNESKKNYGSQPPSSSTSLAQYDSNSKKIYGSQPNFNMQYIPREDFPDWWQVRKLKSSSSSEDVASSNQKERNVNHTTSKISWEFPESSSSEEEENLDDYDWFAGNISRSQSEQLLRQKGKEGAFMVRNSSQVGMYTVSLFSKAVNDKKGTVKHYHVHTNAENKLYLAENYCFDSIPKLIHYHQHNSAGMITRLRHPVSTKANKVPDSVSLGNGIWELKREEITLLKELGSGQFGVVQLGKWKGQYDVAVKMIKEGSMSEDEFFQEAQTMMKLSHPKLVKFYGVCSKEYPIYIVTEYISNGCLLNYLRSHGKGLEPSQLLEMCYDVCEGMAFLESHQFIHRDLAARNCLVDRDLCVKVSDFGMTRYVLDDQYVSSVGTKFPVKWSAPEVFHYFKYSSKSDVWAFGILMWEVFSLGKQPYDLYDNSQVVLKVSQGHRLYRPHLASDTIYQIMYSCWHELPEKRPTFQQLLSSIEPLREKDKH
Source text: Moreover, the depletion could be rescued upon stable overexpression of the C496S mutant BMX.

WT-Ba/F3 cells = assay: cells; conditions: Mus musculus, BaF3, read-out: GI50, WT-Ba/F3
PIK3CA(I800L) = PIK3CA(I800L) (Homo sapiens (Human), UniProt P42336, I800L); assay: Kinase panel at 1 uM (Table 9); format: binding; conditions: read-out: % inhibition at 1 uM, PIK3CA(I800L)
Source text: as §2

DYRK1B = DYRK1B (Homo sapiens (Human), UniProt Q9Y463); assay: Kinase panel at 1 uM (Table 9); format: binding; conditions: read-out: % inhibition at 1 uM, DYRK1B
Source text: as §2

mTORC1 = mTORC1 (Homo sapiens (Human), UniProt P42345); assay: Invitrogen Select Screening in vitro kinase assay; format: biochemical
BMX [3] = molecular target: T2, BMX; assay: Invitrogen Select Screening in vitro kinase assay; format: biochemical
TEC [4] = molecular target: T3, TEC (Homo sapiens (Human), UniProt P42680); assay: DiscoverX binding assay
T3 sequence (P42680 whole entry): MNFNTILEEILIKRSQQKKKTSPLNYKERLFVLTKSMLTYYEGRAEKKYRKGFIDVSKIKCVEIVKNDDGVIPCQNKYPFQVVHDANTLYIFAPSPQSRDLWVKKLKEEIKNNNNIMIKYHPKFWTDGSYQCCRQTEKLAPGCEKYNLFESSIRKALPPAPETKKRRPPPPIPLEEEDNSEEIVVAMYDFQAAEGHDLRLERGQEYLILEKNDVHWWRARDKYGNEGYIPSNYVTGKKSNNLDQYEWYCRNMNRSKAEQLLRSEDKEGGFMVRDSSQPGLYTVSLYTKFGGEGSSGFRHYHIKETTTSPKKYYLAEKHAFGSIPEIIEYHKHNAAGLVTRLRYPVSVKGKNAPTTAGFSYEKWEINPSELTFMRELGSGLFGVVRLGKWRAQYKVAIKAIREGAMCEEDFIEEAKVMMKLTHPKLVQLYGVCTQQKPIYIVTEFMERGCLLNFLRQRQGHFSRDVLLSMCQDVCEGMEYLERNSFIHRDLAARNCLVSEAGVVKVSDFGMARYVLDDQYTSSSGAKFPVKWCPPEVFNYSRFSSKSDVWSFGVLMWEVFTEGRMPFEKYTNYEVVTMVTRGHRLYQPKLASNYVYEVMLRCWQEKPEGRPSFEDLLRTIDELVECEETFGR
Source text: as §2

RV1 xenograft = RV1 xenograft growth; conditions: over 2 weeks, in vivo treatment; FIG. 19
C4-2 cells = assay: cells; conditions: C4-2, read-out: GI50, C4-2
Description: as §3

EGFR(T790M) = EGFR(T790M) (Homo sapiens (Human), UniProt P00533, T790M); assay: DiscoverX binding assay
Source text: as §2

FLT3(ITD) = assay: Kinase panel at 1 uM (Table 9); format: binding
Source text: as §2

PIK3CG = PIK3CG (Homo sapiens (Human), UniProt P48736); assay: Kinase panel at 1 uM (Table 9); format: binding; conditions: read-out: % inhibition at 1 uM, PIK3CG
Sequence of PIK3CG (P48736 whole entry): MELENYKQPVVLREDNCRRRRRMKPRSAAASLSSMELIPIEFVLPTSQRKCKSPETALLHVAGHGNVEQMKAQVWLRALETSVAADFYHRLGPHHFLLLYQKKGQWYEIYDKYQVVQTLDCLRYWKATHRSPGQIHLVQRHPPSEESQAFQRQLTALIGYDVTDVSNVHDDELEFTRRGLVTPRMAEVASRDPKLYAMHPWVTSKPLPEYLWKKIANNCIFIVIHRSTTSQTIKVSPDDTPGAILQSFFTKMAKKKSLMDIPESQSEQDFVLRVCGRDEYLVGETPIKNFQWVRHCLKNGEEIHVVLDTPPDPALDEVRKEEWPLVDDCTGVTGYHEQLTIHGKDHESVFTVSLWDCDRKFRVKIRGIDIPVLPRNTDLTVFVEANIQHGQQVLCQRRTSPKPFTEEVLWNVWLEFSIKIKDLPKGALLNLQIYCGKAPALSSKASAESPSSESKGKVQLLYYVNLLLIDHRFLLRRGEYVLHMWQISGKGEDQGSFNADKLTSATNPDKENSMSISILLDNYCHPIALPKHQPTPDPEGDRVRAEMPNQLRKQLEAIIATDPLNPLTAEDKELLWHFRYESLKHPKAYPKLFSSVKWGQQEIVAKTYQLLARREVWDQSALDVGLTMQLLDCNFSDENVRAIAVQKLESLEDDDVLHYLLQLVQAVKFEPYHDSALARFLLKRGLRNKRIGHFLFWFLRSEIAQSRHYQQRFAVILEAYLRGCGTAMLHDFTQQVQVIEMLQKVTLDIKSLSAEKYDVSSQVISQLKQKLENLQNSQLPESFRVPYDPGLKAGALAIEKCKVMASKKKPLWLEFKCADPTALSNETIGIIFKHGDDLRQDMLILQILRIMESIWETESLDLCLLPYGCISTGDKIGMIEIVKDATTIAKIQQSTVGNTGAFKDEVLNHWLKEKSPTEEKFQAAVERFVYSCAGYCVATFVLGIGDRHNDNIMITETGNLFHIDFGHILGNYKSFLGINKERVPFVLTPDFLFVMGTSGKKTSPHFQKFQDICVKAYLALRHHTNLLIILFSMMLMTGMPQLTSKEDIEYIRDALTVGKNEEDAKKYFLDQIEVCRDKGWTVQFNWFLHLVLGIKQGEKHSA
Source text: as §2

CLK1 = CLK1 (Homo sapiens (Human), UniProt P49759); assay: DiscoverX binding assay; conditions: read-out: % inhibition at 1 uM, CLK1
Source text: as §2

[5] = test system: TEL-JAK3 transformed Ba/F3 cells; assay: cells; conditions: Mus musculus, BaF3, read-out: GI50, TEL-JAK3 (+IL-3)
DYRK1A = DYRK1A (Homo sapiens (Human), UniProt Q13627); assay: Kinase panel at 1 uM (Table 9); format: binding; conditions: read-out: % inhibition at 1 uM, DYRK1A
Source text: as §2

TAK1 = TAK1 (Homo sapiens (Human), UniProt O43318); assay: Kinase panel at 1 uM (Table 9); format: binding; conditions: read-out: % inhibition at 1 uM, TAK1
Source text: as §2

[6] = test system: TYK2E957D transformed Ba/F3 cells; assay: cells; conditions: Mus musculus, BaF3, read-out: GI50, TYK2E957D
ITK [7] = molecular target: T1, ITK; assay: Invitrogen Select Screening in vitro kinase assay; format: biochemical
BCWM.1 cells = assay: Cell proliferation analysis for WM and lymphoma cell lines (CellTiter-Glo); format: cell-based; conditions: BCWM1; 72 hours
Description: (§4) Various cell lines were used including Waldenström's macroglobulinemia (WM) cell lines (BCWM.1, MWCL-1, RPCI-WM1) and B-cell lymphoma cell lines (OCI-Ly3, Ramos, OCI-Ly19). Cells were seeded into 384 well plates with the EL406 Combination Washer Dispenser (BioTek Instruments, Inc.) and inhibitor compounds were injected into the cells culture media with the JANUS Automated Workstation (PerkinElmer Inc.).

[8] = test system: TEL-Abl transformed Ba/F3 cells; assay: cells; conditions: Mus musculus, BaF3, read-out: GI50, TEL-Abl
BLK [9] = molecular target: T4, BLK (Homo sapiens (Human), UniProt P51451); assay: DiscoverX binding assay
T4 sequence (P51451 whole entry): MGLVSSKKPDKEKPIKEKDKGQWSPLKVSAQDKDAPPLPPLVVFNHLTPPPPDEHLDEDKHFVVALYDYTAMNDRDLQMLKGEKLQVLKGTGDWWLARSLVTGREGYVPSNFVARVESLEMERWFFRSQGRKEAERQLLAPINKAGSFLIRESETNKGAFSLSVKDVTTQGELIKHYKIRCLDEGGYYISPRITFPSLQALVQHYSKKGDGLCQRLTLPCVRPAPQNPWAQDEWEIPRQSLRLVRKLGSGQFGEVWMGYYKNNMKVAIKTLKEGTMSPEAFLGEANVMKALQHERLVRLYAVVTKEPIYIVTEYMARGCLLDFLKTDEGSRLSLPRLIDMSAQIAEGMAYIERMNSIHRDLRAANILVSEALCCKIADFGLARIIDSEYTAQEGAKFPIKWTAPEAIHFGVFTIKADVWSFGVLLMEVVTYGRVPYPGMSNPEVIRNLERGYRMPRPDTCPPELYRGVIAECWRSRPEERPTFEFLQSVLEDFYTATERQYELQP
Source text: as §2

[10] = test system: TEL-JAK1 transformed Ba/F3 cells; assay: cells; conditions: Mus musculus, BaF3, read-out: GI50, TEL-JAK1
BMX [11] = molecular target: T2, BMX; assay: DiscoverX binding assay
Source text: as §2

OCI-Ly19 cells = assay: Cell proliferation analysis for WM and lymphoma cell lines (CellTiter-Glo); format: cell-based; conditions: Homo sapiens, 72 hours
Description: as §4

Ramos cells = assay: as above; format: cell-based; conditions: Homo sapiens, 72 hours
Description: as §4

OCI-Ly3 cells = assay: as above; format: cell-based; conditions: Homo sapiens, 72 hours
Description: as §4

TEC [12] = molecular target: T3, TEC; assay: Invitrogen Select Screening in vitro kinase assay; format: biochemical
Source text: (§1) The in vitro activity of compounds of Formula (I) and (II) in inhibiting BMX and other kinases were obtained using an Invitrogen Select Screening assay as known in the art. The IC50 values determined from this assay are shown below.

mTOR [13] = molecular target: T5, mTOR (Homo sapiens (Human), UniProt P42345); assay: Invitrogen Select Screening in vitro kinase assay; format: biochemical
Source text: as §1

BLK [14] = molecular target: T4, BLK; assay: Invitrogen Select Screening in vitro kinase assay; format: biochemical
Source text: as §1

[15] = test system: TEL-JAK2 transformed Ba/F3 cells; assay: cells; conditions: Mus musculus, BaF3, read-out: GI50, TEL-JAK2
CSNK2A2 = CSNK2A2 (Homo sapiens (Human), UniProt P19784); assay: Kinase panel at 1 uM (Table 9); format: binding; conditions: read-out: % inhibition at 1 uM, CSNK2A2
Sequence of CSNK2A2 (P19784 whole entry): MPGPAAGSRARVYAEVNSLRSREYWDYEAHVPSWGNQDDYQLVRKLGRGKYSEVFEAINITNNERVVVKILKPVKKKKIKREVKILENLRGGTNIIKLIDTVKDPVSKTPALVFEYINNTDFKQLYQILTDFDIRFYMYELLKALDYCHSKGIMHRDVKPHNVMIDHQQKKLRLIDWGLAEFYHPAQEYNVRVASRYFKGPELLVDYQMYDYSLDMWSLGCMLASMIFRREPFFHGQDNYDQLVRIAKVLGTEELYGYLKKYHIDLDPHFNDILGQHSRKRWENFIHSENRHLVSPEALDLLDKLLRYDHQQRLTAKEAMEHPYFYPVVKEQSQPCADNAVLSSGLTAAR
Source text: as §2

mTOR [16] = molecular target: T5, mTOR; assay: DiscoverX binding assay; conditions: read-out: % inhibition at 1 uM, MTOR
Source text: as §2

MEK5 = MEK5 (Homo sapiens (Human), UniProt Q13163); assay: Kinase panel at 1 uM (Table 9); format: binding; conditions: read-out: % inhibition at 1 uM, MEK5
Source text: as §2

JAK3 = JAK3 (Homo sapiens (Human), UniProt P52333); assay: DiscoverX binding assay
Sequence of JAK3 (P52333 whole entry): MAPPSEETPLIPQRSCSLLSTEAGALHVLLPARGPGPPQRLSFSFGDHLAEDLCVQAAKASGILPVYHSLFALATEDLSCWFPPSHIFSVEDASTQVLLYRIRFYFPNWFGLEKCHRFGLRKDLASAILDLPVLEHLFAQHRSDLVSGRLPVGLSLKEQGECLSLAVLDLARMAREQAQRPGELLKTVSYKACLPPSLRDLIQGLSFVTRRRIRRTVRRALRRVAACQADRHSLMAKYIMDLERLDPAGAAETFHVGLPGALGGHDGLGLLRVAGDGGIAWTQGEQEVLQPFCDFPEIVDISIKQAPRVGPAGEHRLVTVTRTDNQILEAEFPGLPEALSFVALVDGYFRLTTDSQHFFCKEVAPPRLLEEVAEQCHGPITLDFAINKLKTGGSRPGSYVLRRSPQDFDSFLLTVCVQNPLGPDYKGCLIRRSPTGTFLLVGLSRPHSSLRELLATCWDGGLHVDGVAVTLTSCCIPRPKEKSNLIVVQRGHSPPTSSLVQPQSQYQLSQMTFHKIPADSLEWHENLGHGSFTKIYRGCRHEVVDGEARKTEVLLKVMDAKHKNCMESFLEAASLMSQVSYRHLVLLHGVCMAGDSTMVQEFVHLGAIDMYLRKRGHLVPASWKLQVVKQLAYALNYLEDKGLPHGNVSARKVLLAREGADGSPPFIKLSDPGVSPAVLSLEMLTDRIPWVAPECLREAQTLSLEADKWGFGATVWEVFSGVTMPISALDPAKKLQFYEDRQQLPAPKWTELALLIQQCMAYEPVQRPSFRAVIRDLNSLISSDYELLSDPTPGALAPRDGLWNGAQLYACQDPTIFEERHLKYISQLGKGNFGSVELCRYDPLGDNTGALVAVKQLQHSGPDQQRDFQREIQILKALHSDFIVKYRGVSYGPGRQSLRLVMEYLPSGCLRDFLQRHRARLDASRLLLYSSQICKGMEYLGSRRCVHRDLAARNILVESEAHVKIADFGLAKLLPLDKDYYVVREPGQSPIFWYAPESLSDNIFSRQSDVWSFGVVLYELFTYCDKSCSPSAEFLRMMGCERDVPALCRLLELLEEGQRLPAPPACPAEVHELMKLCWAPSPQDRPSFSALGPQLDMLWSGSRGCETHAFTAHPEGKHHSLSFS
Source text: as §2

T1 sequence (Q08881 whole entry): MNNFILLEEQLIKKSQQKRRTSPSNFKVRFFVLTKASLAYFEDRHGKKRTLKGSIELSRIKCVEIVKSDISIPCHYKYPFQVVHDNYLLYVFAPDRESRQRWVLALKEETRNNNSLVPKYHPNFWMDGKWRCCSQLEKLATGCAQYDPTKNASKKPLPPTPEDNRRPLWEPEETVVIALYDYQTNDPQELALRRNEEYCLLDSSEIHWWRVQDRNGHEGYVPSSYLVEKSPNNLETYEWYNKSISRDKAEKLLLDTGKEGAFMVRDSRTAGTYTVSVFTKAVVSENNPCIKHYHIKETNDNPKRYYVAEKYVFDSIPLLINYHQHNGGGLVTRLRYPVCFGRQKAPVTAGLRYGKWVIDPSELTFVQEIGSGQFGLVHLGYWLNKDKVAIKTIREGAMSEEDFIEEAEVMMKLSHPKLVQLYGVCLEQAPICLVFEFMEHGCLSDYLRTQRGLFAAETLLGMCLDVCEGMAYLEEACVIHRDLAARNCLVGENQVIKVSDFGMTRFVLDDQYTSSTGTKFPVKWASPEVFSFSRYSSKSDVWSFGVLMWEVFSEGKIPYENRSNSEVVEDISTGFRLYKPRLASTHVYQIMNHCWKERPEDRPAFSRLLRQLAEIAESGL

C=CC(=O)Nc1cc(-n2c(=O)ccc3cnc4ccc(-c5ccc(NS(C)(=O)=O)cc5)cc4c32)ccc1C [I-14]
Percent Control, ITK (ITK [1]): 52% | GI50 (RV-1 cells; RV-1): 2.54 µM | IC50 (RV-1 cells; RV-1, 120 h, 5 day incubation): 2.53 µM | BMX protein levels in RV-1 cells (BMX [2]): significantly reduced | GI50 (WT-Ba/F3 cells): > 10 µM | inhibition at 1 µM (PIK3CA(I800L)): 46% | inhibition at 1 µM (DYRK1B): 100% | IC50 (mTORC1): 7.4 µM | IC50 (BMX [3]): 0.00799 µM | Percent Control, TEC (TEC [4]): 27% | RV1 xenograft growth (RV1 xenograft): decreased | GI50 (C4-2 cells): > 10 µM | Percent Control, EGFR(T790M) (EGFR(T790M); DiscoverX binding): 2.1% | inhibition at 1 µM (EGFR(T790M); read-out: % inhibition at 1 uM, EGFR(T790M)): 11% | % inhibition at 1 uM, FLT3(ITD) (FLT3(ITD)): 99% | inhibition at 1 µM (PIK3CG): 2.8% | inhibition at 1 µM (CLK1): 95% | GI50 [5]: 7.77 µM | inhibition at 1 µM (DYRK1A): 100% | inhibition at 1 µM (TAK1): 83% | GI50 [6]: 6.09 µM | IC50 (ITK [7]): 5.25 µM | EC50 (BCWM.1 cells): 1.1 µM | GI50 [8]: > 10 µM | Percent Control, BLK (BLK [9]; DiscoverX binding): 40% | inhibition at 1 µM (BLK [9]; read-out: % inhibition at 1 uM, BLK): 40% | GI50 [10]: 4.92 µM | Percent Control, BMX (BMX [11]): 29% | EC50 (OCI-Ly19 cells): 0.9 µM | EC50 (Ramos cells): > 20 µM | EC50 (OCI-Ly3 cells): > 20 µM | IC50 (TEC [12]): 0.653 µM | IC50 (mTOR [13]): 0.325 µM | IC50 (BLK [14]): 0.377 µM | GI50 [15]: 5.83 µM | inhibition at 1 µM (CSNK2A2): 100% | inhibition at 1 µM (mTOR [16]): 45% | inhibition at 1 µM (MEK5): 100% | Percent Control, JAK3 (JAK3; DiscoverX binding): 20% | inhibition at 1 µM (JAK3; read-out: % inhibition at 1 uM, JAK3(JH1domain-catalytic)): 6.6%
